Laboratory results as given in PMC3085043 (Chemico-biological interactions, 2010).
Blank lines part the entries; values can stand above or below the compound they belong to.

What was measured:
[1] = target: FOH-DH and GGOH-DH partially purified from liver (Rattus norvegicus, UniProt P06757); format: biochemical; details: mean of three determinations; for Km values for substrate: pH 7.4, 2 mM NAD+
[2] = target: FOH-DH and GGOH-DH partially purified from stomach (Rattus norvegicus, UniProt P41682); format: biochemical; details: for IC50 for the FOH-DH activity / Km values for substrate: mean of three determinations; for Km values for substrate: pH 7.4, 2 mM NAD+
FOH-DH and GGOH-DH partially purified from stomach, sequence (P41682 whole entry): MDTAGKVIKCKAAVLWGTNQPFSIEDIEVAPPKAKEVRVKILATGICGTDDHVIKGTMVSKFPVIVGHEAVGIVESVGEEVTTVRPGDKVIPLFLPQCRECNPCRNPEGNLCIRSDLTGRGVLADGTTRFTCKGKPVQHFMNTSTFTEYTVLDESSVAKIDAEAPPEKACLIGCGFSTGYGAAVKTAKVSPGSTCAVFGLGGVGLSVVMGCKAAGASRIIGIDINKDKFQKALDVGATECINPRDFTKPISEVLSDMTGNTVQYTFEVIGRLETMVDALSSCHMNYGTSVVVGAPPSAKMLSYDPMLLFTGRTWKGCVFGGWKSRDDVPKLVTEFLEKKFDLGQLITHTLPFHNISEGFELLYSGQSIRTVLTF

[3] = target: FOH-DH and GGOH-DH partially purified from lung (Rattus norvegicus, UniProt P41682); format: biochemical; details: for IC50 for the FOH-DH activity / Km values for substrate: mean of three determinations; for Km values for substrate: pH 7.4, 2 mM NAD+
FOH-DH and GGOH-DH partially purified from lung, sequence (P41682 whole entry): as above

[4] = target: FOH-DH and GGOH-DH partially purified from colon (Rattus norvegicus, UniProt P06757); format: biochemical; details: mean of three determinations; for Km values for substrate: pH 7.4, 2 mM NAD+
FOH-DH and GGOH-DH partially purified from colon, sequence (P06757 2-376): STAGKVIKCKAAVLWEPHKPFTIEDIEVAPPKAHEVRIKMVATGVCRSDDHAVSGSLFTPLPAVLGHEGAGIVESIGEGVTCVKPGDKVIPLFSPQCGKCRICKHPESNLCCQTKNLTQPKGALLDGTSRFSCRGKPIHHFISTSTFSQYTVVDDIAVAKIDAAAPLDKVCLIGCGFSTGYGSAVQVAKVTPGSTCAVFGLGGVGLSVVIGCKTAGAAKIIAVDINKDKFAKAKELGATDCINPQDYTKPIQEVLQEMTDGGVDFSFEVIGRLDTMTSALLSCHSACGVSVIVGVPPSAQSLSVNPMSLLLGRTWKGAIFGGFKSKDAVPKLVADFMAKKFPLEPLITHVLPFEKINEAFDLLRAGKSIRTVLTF

recombinant ADH1 = recombinant ADH1 (Rattus norvegicus, UniProt P06757); test: Dehydrogenase activity of recombinant ADH1; format: biochemical
recombinant ADH1, sequence (P06757 whole entry): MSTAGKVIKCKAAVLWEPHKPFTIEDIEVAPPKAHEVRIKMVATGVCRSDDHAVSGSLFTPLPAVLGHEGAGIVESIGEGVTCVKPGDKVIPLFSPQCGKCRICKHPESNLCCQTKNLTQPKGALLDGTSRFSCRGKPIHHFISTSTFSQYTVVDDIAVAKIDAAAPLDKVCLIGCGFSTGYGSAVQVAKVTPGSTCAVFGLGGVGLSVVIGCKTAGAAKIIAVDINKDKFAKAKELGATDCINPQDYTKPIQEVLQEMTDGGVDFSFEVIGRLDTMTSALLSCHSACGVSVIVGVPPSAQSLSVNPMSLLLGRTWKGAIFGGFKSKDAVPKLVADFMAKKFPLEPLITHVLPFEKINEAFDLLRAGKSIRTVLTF

recombinant ADH7 = recombinant ADH7 (Rattus norvegicus, UniProt P41682); test: Dehydrogenase activity of recombinant ADH7; format: biochemical
recombinant ADH7, sequence (P41682 whole entry): as the sequence (P41682 whole entry) above

MCF7 cells = test: Metabolism of [14C] FOH to FA in MCF7 cells; format: cell-based, human; details: 6 h with 20 μM [14C] FOH
[5] = system: low-MW FAL-R and GGAL-R from liver; test: FAL-R/GGAL-R activity of low-MW reductase from rat liver; format: biochemical; details: 1 μM inhibitor; liver enzyme
[6] = target: T1, low-MW FAL-R and GGAL-R from stomach, lung and colon (Rattus norvegicus, UniProt D3ZF77); test: FAL-R/GGAL-R activity of low-MW reductases from rat stomach, lung and colon; format: biochemical; details: 1 μM inhibitor; stomach, lung and colon enzymes
T1 sequence (D3ZF77 1-324): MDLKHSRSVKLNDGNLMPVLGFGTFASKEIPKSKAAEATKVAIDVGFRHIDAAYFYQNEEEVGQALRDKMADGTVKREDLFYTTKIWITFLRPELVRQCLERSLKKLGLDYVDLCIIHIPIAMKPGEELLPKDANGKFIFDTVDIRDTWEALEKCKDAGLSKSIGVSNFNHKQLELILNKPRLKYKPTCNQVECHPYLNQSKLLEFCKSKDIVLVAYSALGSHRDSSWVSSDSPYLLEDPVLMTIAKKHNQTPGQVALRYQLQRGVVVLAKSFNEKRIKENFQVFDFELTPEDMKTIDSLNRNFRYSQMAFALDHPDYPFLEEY

HeLa cells = test: Metabolism of [14C] FOH to FA in HeLa cells; format: cell-based
[7] = system: gastric mucosa RGM1 cells; test: Metabolism of [14C] GGOH to GGA in RGM1 cells; format: cell-based, rat; details: 1 μM [14C] GGOH

FOH-DH and GGOH-DH partially purified from liver, sequence (P06757 whole entry): as the sequence (P06757 whole entry) above

Structure (SMILES): c1cnc2c(c1)ccc1cccnc12 [1,10-Phenanthroline]
IC50 for the FOH-DH activity [1]: 30 µM
IC50 for the FOH-DH activity [2]: 35 µM
IC50 for the FOH-DH activity [3]: 37 µM
IC50 for the FOH-DH activity [4]: 36 µM
IC50 (recombinant ADH1): 21 µM
IC50 (recombinant ADH7): 20 µM

Structure (SMILES): O=C(O)c1cc(-c2ccccc2)cc(Br)c1O [3-bromo-5-phenylsalicylic acid]
effect of inhibitor on formation of FA from FOH (cellular FOH metabolism) (MCF7 cells): no significant changes

Structure (SMILES): O=C1OC(c2cc(Br)c(O)c(Br)c2)(c2cc(Br)c(O)c(Br)c2)c2ccccc21 [3′,3″,5′,5″-tetrabromophenolphthalein]
inhibition of enzyme activity [5]: less than 20%
inhibition of enzyme activity [6]: more than 80%

Structure (SMILES): COc1ccc(/N=c2\oc3cc(O)ccc3cc2C(=O)Nc2ccccn2)cc1 [(Z)-2-(4-methoxyphenylimino)-7-hydroxy-N-(pyridin-2-yl)-2H-chromene-3-carboxamide]
effect of inhibitor on formation of FA from FOH (cellular FOH metabolism) (MCF7 cells): no significant changes

Next, values leading:

inhibition of enzyme activity [5]: less than 20%
inhibition of enzyme activity [6]: more than 80%
Structure (SMILES): O=C1OC(c2cc(I)c(O)c(I)c2)(c2cc(I)c(O)c(I)c2)c2ccccc21 [3′,3″,5′,5″-tetraiodo-phenolphthalein]

IC50 for the FOH-DH activity [1]: 2.8 µM
inhibition % of FOH-DH activity ([2]; 1 mM inhibitor): (36%)
inhibition % of FOH-DH activity ([3]; 1 mM inhibitor): (17%)
IC50 for the FOH-DH activity [4]: 7.6 µM
IC50 (recombinant ADH1): 5.5 µM
inhibition at 1000 µM (recombinant ADH7; read-out: inhibition % of FOH-DH activity): 25%
Structure (SMILES): Cc1cn[nH]c1 [4-Methylpyrazole]

IC50 for the FOH-DH activity [1]: 12 µM
IC50 for the FOH-DH activity [2]: 12 µM
IC50 for the FOH-DH activity [3]: 24 µM
IC50 for the FOH-DH activity [4]: 7.7 µM
IC50 (recombinant ADH1): 15 µM
IC50 (recombinant ADH7): 15 µM
Structure (SMILES): CC1=C(/C=C/C(C)=C/C=C/C(C)=C\C(=O)O)C(C)(C)CCC1 [13-cis-Retinoic acid]

Km values for substrate [1]: 0.7 µM
Km values for substrate [2]: 29 µM
Km values for substrate [3]: 23 µM
Km values for substrate [4]: 1.8 µM
metabolic rate from FOH to FA (HeLa cells; AKR1C15-overexpressed HeLa cells compared to the control cells): greatly decreased
metabolism of FOH (HeLa cells; control HeLa cells (vector alone), 20 μM [14C] FOH): rapidly converted into FA
Structure (SMILES): CC(C)=CCC/C(C)=C/CC/C(C)=C/CO [FOH, Farnesol]

Km values for substrate [1]: 0.4 µM
Km values for substrate [2]: 0.8 µM
Km values for substrate [3]: 1.1 µM
Km values for substrate [4]: 0.4 µM
metabolism of GGOH [7]: metabolized into GGA
Structure (SMILES): CC(C)=CCC/C(C)=C/CC/C(C)=C/CC/C(C)=C/CO [GGOH, geranylgeraniol]
